Results: publication PMC4792926, “G9a-mediated methylation of ERα links the PHF20/MOF histone acetyltransferase complex to hormonal gene expression” (Nature Communications, 2016)

What was measured:
Format in all cases: cell-based, human
[1] = system: ERα on GREB1 and PR promoters; assay: ERα ChIP-qPCR in MCF-7 cells; settings: E2, 15 and 45 min
Procedure: (§1) Human MCF-7, T-47D, U2OS and HEK293T cells (ATCC) were cultured in DMEM (Cellgro) supplemented with 10% fetal bovine serum (FBS, Sigma). For G9a inhibitor treatment, BIX-01294 (Sigma) was added to the medium, at the indicated concentrations, 24 h before the cells were collected. For shRNA knockdown, 293T cells were co-transfected with pMD2.G and pPAX2 (Addgene) together with pLKO-shRNA constructs or a non-targeting pLKO-shRNA (pLKO-shCtrl). Viral supernatants were harvested after 48 h. For infections, MCF-7 or T-47D cells were incubated with viral supernatants in the presence of 8 μg ml^−1 polybrene. After 48 h, puromycin (2 μg ml^−1) was added to the DMEM. Cells were grown, with selection for 5–7 days to select for stable knockdown cells before oestrogen treatment. For oestrogen treatment, cells were starved in phenol red-free DMEM supplemented with 10% charcoal-stripped FBS (Sigma) for 3–4 days, and 10 nM 17β-estradiol (Sigma) or ethanol (vehicle) were added to the medium (3 or 6 h for gene expression studies, and 15 and 45 min for ChIP experiments) before the cells were collected.
ChIP analysis was performed essentially as described previously. Briefly, cells were crosslinked with 1% formaldehyde for 10 min at room temperature, and the reaction was stopped with 125 mM glycine. Nuclei were isolated by resuspending the cells in swelling buffer containing 5 mM PIPES, pH 8.0, 85 mM KCl, 1% NP-40 and complete protease inhibitors for 20 min at 4 °C. The isolated nuclei were resuspended in nuclei lysis buffer (50 mM Tris, pH 8.0, 10 mM EDTA, 1% SDS) and sonicated using a Bioruptor Sonicator (Diagenode). Samples were immunoprecipitated with 2–4 μg of the appropriate antibodies overnight at 4 °C. Immunoprecipitates were washed twice with dialysis buffer (50 mM Tris pH 8.0, 2 mM EDTA, 0.2% Sarkosyl) and four times with IP wash buffer (100 mM Tris, pH 8.0, 500 mM LiCl, 1% NP-40 and 1% deoxycholic acid sodium salt). After reverse crosslinking was performed, the DNA was eluted and purified using a PCR purification kit (Qiagene). […]

MCF-7 cells = assay: RNA-seq in MCF-7 cells ±E2; settings: 10 nM E2, 3 h
Procedure: as §1, with “For oestrogen treatment, cells were starved in phenol red-free DMEM supplemented with 10% charcoal-stripped FBS (Sigma) for 3–4 days, and 10 nM 17β-estradiol (Sigma) or ethanol (vehicle) were added to the medium (3 or 6 h for gene expression studies, and 15 and 45 min for ChIP experiments) before the cells were collected.” left out
RNA-seq samples were sequenced using the Illumina Hiseq 2000, and raw reads were mapped to the human reference genome (hg19) and transcriptome using the RNA-seq unified mapper. Read counts for each transcript were calculated using HTseq v0.6.1 using default parameters. […] For the PHF20 knockdown data set, the common dispersion and tag wise dispersion were calculated using the edgeR ‘estimateCommonDisp' and ‘estimateTagwise-Disp' functions, respectively. […]

[2] = system: ERα target genes (GREB1, PR, TFF1); assay: qPCR of E2-induced ERα target gene expression in T-47D cells; settings: 10 nM E2, 3 or 6 h; G9a-depleted T-47D
Procedure: as §1, with “For oestrogen treatment, cells were starved in phenol red-free DMEM supplemented with 10% charcoal-stripped FBS (Sigma) for 3–4 days, and 10 nM 17β-estradiol (Sigma) or ethanol (vehicle) were added to the medium (3 or 6 h for gene expression studies, and 15 and 45 min for ChIP experiments) before the cells were collected.” left out
Reverse transcription and real-time PCR were performed as described previously. mRNA was prepared using the RNeasy Plus kit (Qiagen) and reverse transcribed using the First Strand Synthesis kit (Invitrogen). Quantitative real-time RT–PCR (qPCR) was performed on an ABI 7500-FAST Sequence Detection System using the Power SYBR Green PCR Master Mix (Applied Biosystems). Gene expression was calculated following normalization to GAPDH levels using the comparative Ct (cycle threshold) method and is shown as ‘Fold' relative to the expression of each gene in the control cells without E2 treatment that was arbitrarily set as ‘1'. […]

ERαK235me2 = assay: Immunofluorescence of ERαK235me2 in MCF-7 cells; settings: 10 nM 17β-estradiol, 45 min; E2-deprived MCF-7
Procedure: MCF-7 cells were E2-depleted for 3 days and treated with 10 nM 17β-estradiol or ethanol for 45 min. Cells were then fixed in 4% formaldehyde, washed and permeabilized in 0.5% Triton X-100 on ice for 10 min. Cells were then blocked in 3% BSA, incubated with primary antibodies in 3% BSA for 2 h, washed, and probed with fluorescein-conjugated secondary antibodies in 3% BSA for 1 h. Cells on the slide were then washed, covered with mounting medium (with DAPI) and observed using an Olympus confocal microscope FluoView FV1000.
(d) ERαK235, but not K303, is required for the coactivator function of G9a in an estrogen response element- (ERE) driven luciferase assay. U2OS cells were cotransfected with G9a, NCOA2 and ERα (WT, K235R, or K303R) together with an ERE-Firefly luciferase and a Renilla luciferase, and the luciferase activity was determined 24 hrs after E2 treatment.
(e) G9a has a catalytic activity-dependent and independent coactivator activity of ERα. U2OS cells were cotransfected with ERα, NCOA2 and […] (WT or H1113K) together with an ERE-Firefly luciferase and a Renilla luciferase, and the luciferase activity was determined as described in the Method section.
(f) Both the E2-dependent and E2-independent ERα coactivator functions of G9a require the ERαK235 residue. […]

[3] = system: H4K16ac on ERα target gene promoters; assay: Histone H4K16ac ChIP-qPCR in MCF-7 cells
Procedure: as §1
ChIP analysis was performed essentially as described previously. Briefly, cells were crosslinked with 1% formaldehyde for 10 min at room temperature, and the reaction was stopped with 125 mM glycine. Nuclei were isolated by resuspending the cells in swelling buffer containing 5 mM PIPES, pH 8.0, 85 mM KCl, 1% NP-40 and complete protease inhibitors for 20 min at 4 °C. The isolated nuclei were resuspended in nuclei lysis buffer (50 mM Tris, pH 8.0, 10 mM EDTA, 1% SDS) and sonicated using a Bioruptor Sonicator (Diagenode). Samples were immunoprecipitated with 2–4 μg of the appropriate antibodies overnight at 4 °C. Immunoprecipitates were washed twice with dialysis buffer (50 mM Tris pH 8.0, 2 mM EDTA, 0.2% Sarkosyl) and four times with IP wash buffer (100 mM Tris, pH 8.0, 500 mM LiCl, 1% NP-40 and 1% deoxycholic acid sodium salt). After reverse crosslinking was performed, the DNA was eluted and purified using a PCR purification kit (Qiagene). The primer sequences used for ChIP analyses are listed in Supplementary Table 4.

[4] = system: ERα target genes (GREB1, PR, TFF1); assay: qPCR of E2-induced ERα target gene expression in MCF-7 cells; settings: for fold induction of GREB1, PR and TFF1: control (shCtrl) MCF-7, relative to untreated cells
Procedure: as §1
Reverse transcription and real-time PCR were performed as described previously. mRNA was prepared using the RNeasy Plus kit (Qiagen) and reverse transcribed using the First Strand Synthesis kit (Invitrogen). Quantitative real-time RT–PCR (qPCR) was performed on an ABI 7500-FAST Sequence Detection System using the Power SYBR Green PCR Master Mix (Applied Biosystems). Gene expression was calculated following normalization to GAPDH levels using the comparative Ct (cycle threshold) method and is shown as ‘Fold' relative to the expression of each gene in the control cells without E2 treatment that was arbitrarily set as ‘1'. The primer sequences used for RT–PCR are listed in Supplementary Table 5.

C[C@]12CC[C@@H]3c4ccc(O)cc4CC[C@H]3[C@@H]1CC[C@@H]2O [E2, 17β-estradiol]
levels of ERα on GREB1 and PR promoters ([1]; G9a-depleted MCF-7): markedly reduced | ERα occupancy on the promoters of GREB1 and PR ([1]; PHF20 knockdown MCF-7): no or minimal ERα occupancy was detected | ERα on the promoters of GREB1 and PR ([1]; control MCF-7): E2-dependent increase of ERα on the promoters of GREB1 and PR | number of E2-activated genes (MCF-7 cells): 774 genes | E2-induced gene activation on G9a depletion [2]: drastically decreased | ERαK235me2 level (ERαK235me2): increased upon E2 stimulation | E2-dependent H4K16ac and ERα on GREB1 and PR promoters (H4K16ac) ([3]; E2, 15 and 45 min, G9a-depleted MCF-7): markedly reduced | E2-dependent increase of H4K16ac on GREB1 and PR promoters ([3]; E2, 15 and 45 min, PHF20-depleted MCF-7): greatly diminished | H4K16ac levels on GREB1 and PR promoters ([3]; E2, 15 and 45 min, control MCF-7): dramatic increase in H4K16ac levels | H4K16ac on genes not regulated by PHF20 ([3]; E2, MCF-7): no apparent H4K16ac signals were detected | E2-induced activation of GREB1 and PR on PHF20 depletion ([4]; 10 nM E2, 3 or 6 h, PHF20 knockdown MCF-7): drastically decreased | fold induction of GREB1, PR and TFF1 ([4]; 10 nM E2, 3 h): ~4 fold | fold induction of GREB1, PR and TFF1 ([4]; 10 nM E2, 6 h): ~6 fold
